Assay results: patent EP0051819A2, “Tetra-substituted benzene derivatives, their preparation and pharmaceutical preparations containing them” (F. HOFFMANN-LA ROCHE & CO. Aktiengesellschaft, priority 1980, dated 1982)
Converted amounts (≈) assume the structure as drawn. Like-named read-outs stand apart in the source and are kept apart here.

What was measured:
Assay type in all cases: cell-based
Rhinovirus HGP = test: Antiviral activity: inhibition of viral cytopathogenic effect (C.P.E.) in HeLa cell culture; conditions: for IC50: Enterovirus, HeLa, 48 h; for antivirale Aktivität: qualitative statement in the description, no virus named
Protocol: (§1) Eine Suspension von HeLa-Zellen (6 x 10^4) wurde mit Rhinovirus HGP (3 x 10^3 Plaque-bildende Einheiten, PFU) gemischt und auf eine Mikrotestplatte gebracht, die die zu testenden Verbindungen in zunehmender Verdünnung enthielten. Die Zellen wurden dann in Eagle's Minimalnährlösung, die 2% Kalbsserum, 1% Tryptosephosphatbrühe, 100 ug/ml Streptomycin und 20 Einheiten/ml Penicillin G enthielt, kultiviert. Der virale zytopathogenische Effekt (C.P.E.) und die Cytotoxizität wurden mikroskopisch nach 2 Tagen Kultivierung bei 33°C beobachtet. Die antivirale Aktivität (IC50) der Testverbindungen ist diejenige Konzentration,.bei der C.P.E. um 50% gegenüber der Kontrollkultur gehemmt war. Die Cytotoxizität ist als Minimalkonzentration angegeben, bei der toxische Symptome beobachtet wurden.(cytotoxische Dosis).

[1] = Cytotoxicity in HeLa cells, observed microscopically in the antiviral test; conditions: human, hela cells; minimal concentration at which toxic symptoms were observed (cytotoxische Dosis); 2 days at 33°C; read-out: Cytotoxizität
Protocol: as §1

Rhinovirus 14 = test: Antiviral spectrum against rhinovirus serotypes (C.P.E. inhibition); conditions: Enterovirus; virus strain Rhinovirus 14
Protocol: as §1
(§2) Weiterhin sind die antiviralen Spektren von 1-(4-Ethoxy-2-hydroxy-6-methoxyphenyl)-3-(4-methoxyphenyl)-1-propanon (Verbindung A) und 4-Ethoxy-2-hydroxy-6-methoxy-N-(p-methoxybenzyl)benzamid (Verbindung B) gegen verschiedene Serotypen von Rhinoviren in Tabelle 2. angegeben.

Rhinovirus 1A = test: as above; conditions: Enterovirus; virus strain Rhinovirus 1A
Protocol: as §1, §2

Rhinovirus 1B = test: as above; conditions: Enterovirus; virus strain Rhinovirus 1B
Protocol: as §1, §2

Rhinovirus 21 = test: as above; conditions: Enterovirus; virus strain Rhinovirus 21
Protocol: as §1, §2

Rhinovirus 23 = test: as above; conditions: Enterovirus; virus strain Rhinovirus 23
Protocol: as §1, §2

Rhinovirus 24 = test: as above; conditions: Enterovirus; virus strain Rhinovirus 24
Protocol: as §1, §2

Rhinovirus 25 = test: as above; conditions: Enterovirus; virus strain Rhinovirus 25
Protocol: as §1, §2

Rhinovirus 2 = test: as above; conditions: Enterovirus; virus strain Rhinovirus 2
Protocol: as §1, §2

Rhinovirus 31 = test: as above; conditions: Enterovirus; virus strain Rhinovirus 31
Protocol: as §1, §2

Rhinovirus 39 = test: as above; conditions: Enterovirus; virus strain Rhinovirus 39
Protocol: as §1, §2

Rhinovirus 46 = test: as above; conditions: Enterovirus; virus strain Rhinovirus 46
Protocol: as §1, §2

Rhinovirus 50 = test: as above; conditions: Enterovirus; virus strain Rhinovirus 50
Protocol: as §1, §2

Rhinovirus 9 = test: as above; conditions: Enterovirus; virus strain Rhinovirus 9
Protocol: as §1, §2

[2] = Cytotoxic dose inhibiting HeLa cell growth; conditions: human, hela cells; footnote of Tabelle 2; read-out: cytotoxischen Dosen, die HeLa-Zellwachstum hemmen
Rhinovirus 16 = test: Antiviral spectrum against rhinovirus serotypes (C.P.E. inhibition); conditions: Enterovirus; virus strain Rhinovirus 16
Protocol: as §1, §2

Rhinovirus 30 = test: as above; conditions: Enterovirus; virus strain Rhinovirus 30
Protocol: as §1, §2

Rhinovirus 32 = test: as above; conditions: Enterovirus; virus strain Rhinovirus 32
Protocol: as §1, §2

Rhinovirus 36 = test: as above; conditions: Enterovirus; virus strain Rhinovirus 36
Protocol: as §1, §2

Rhinovirus 44 = test: as above; conditions: Enterovirus; virus strain Rhinovirus 44
Protocol: as §1, §2

Rhinovirus 47 = test: as above; conditions: Enterovirus; virus strain Rhinovirus 47
Protocol: as §1, §2

Rhinovirus 55 = test: as above; conditions: Enterovirus; virus strain Rhinovirus 55
Protocol: as §1, §2

HeLa-Zellen = test: Cytotoxicity in HeLa cells, observed microscopically in the antiviral test; conditions: minimal concentration at which toxic symptoms were observed (cytotoxische Dosis); 2 days at 33°C
Protocol: as §1

[3] = concentration inhibiting C.P.E. by 50% versus control culture, HeLa cells, 2 days at 33°C, read-out: IC50

Compound: CCOc1cc(O)c(C(=O)CCc2ccc(OC)cc2)c(OC)c1 [1-(4-Ethoxy-2-hydroxy-6-methoxyphenyl)-3-(4-methoxyphenyl)-1-propanon]
- IC50 (Rhinovirus HGP; [3]): 0.002 µg/mL (≈ 0.00605 µM)
- antivirale Aktivität (Rhinovirus HGP): besonders starke antivirale Aktivität
- MCC at 48 h [1]: > 8 µg/mL
- IC50 (Rhinovirus 14): 0.1 to 0.3 µg/mL (≈ 0.303 to 0.908 µM)
- IC50 (Rhinovirus 1A): 0.03 to 0.09 µg/mL (≈ 0.0908 to 0.272 µM)
- IC50 (Rhinovirus 1B): 0.03 to 0.09 µg/mL (≈ 0.0908 to 0.272 µM)
- IC50 (Rhinovirus 21): < 0.001 µg/mL
- IC50 (Rhinovirus 23): 0.004 µg/mL (≈ 0.0121 µM)
- IC50 (Rhinovirus 24): 0.01 to 0.03 µg/mL (≈ 0.0303 to 0.0908 µM)
- IC50 (Rhinovirus 25): 0.01 to 0.09 µg/mL (≈ 0.0303 to 0.272 µM)
- IC50 (Rhinovirus 2): 0.001 µg/mL (≈ 0.00303 µM)
- IC50 (Rhinovirus 31): 0.03 to 0.09 µg/mL (≈ 0.0908 to 0.272 µM)
- IC50 (Rhinovirus 39): 0.012 to 0.037 µg/mL (≈ 0.0363 to 0.112 µM)
- IC50 (Rhinovirus 46): 0.037 to 0.11 µg/mL (≈ 0.112 to 0.333 µM)
- IC50 (Rhinovirus 50): 0.004 to 0.012 µg/mL (≈ 0.0121 to 0.0363 µM)
- IC50 (Rhinovirus 9): 0.012 to 0.037 µg/mL (≈ 0.0363 to 0.112 µM)
- MCC [2]: 60 µg/mL

Compound: COc1cc(O)c(C(=O)CCc2ccc(Cl)cc2)c(OC)c1 [3-(4-Chlorophenyl)-1-(2-hydroxy--4,6-dimethoxyphenyl)-1--propanon]
- IC50 (Rhinovirus HGP; [3]): 0.1 µg/mL (≈ 0.312 µM)
- MCC at 48 h [1]: 10 µg/mL

Compound: C=CCOc1cc(O)c(C(=O)NCc2ccc(OC)cc2)c(OC)c1 [4-(Allyloxy)-2-hydroxy-6-methoxy-N-(p-methoxybenzyl)benzamid]
- IC50 (Rhinovirus HGP; [3]): 0.002 µg/mL (≈ 0.00582 µM)
- antivirale Aktivität (Rhinovirus HGP): besonders starke antivirale Aktivität
- MCC at 48 h [1]: > 8 µg/mL

Compound: CCOc1cc(O)c(C(=S)NCc2ccc(OC)cc2)c(OC)c1 [4-Ethoxy-2-hydroxy-6-methoxy-N-(p-methoxybenzyl)-thiobenzamid]
- IC50 (Rhinovirus HGP; [3]): 0.01 µg/mL (≈ 0.0288 µM)
- MCC at 48 h [1]: > 8 µg/mL

Compound: CCOc1cc(O)c(C(=O)NCc2ccc(OC)cc2)c(OC)c1 [4-Ethoxy-2-hydroxy-6-methoxy-N-(p-methoxybenzyl)benzamid]
- IC50 (Rhinovirus HGP; [3]): 0.002 µg/mL (≈ 0.00604 µM)
- antivirale Aktivität (Rhinovirus HGP): besonders starke antivirale Aktivität
- MCC at 48 h [1]: > 10 µg/mL
- IC50 (Rhinovirus 14): 0.009 to 0.027 µg/mL (≈ 0.0272 to 0.0815 µM)
- IC50 (Rhinovirus 16): 0.003 µg/mL (≈ 0.00905 µM)
- IC50 (Rhinovirus 1A): 0.009 to 0.027 µg/mL (≈ 0.0272 to 0.0815 µM)
- IC50 (Rhinovirus 1B): 0.003 to 0.009 µg/mL (≈ 0.00905 to 0.0272 µM)
- IC50 (Rhinovirus 21): < 0.001 µg/mL
- IC50 (Rhinovirus 2): 0.001 µg/mL (≈ 0.00302 µM)
- IC50 (Rhinovirus 30): 0.001 to 0.003 µg/mL (≈ 0.00302 to 0.00905 µM)
- IC50 (Rhinovirus 31): 0.081 to 0.24 µg/mL (≈ 0.244 to 0.724 µM)
- IC50 (Rhinovirus 32): 0.003 to 0.009 µg/mL (≈ 0.00905 to 0.0272 µM)
- IC50 (Rhinovirus 36): 0.009 to 0.027 µg/mL (≈ 0.0272 to 0.0815 µM)
- IC50 (Rhinovirus 39): 0.003 µg/mL (≈ 0.00905 µM)
- IC50 (Rhinovirus 44): 0.003 µg/mL (≈ 0.00905 µM)
- IC50 (Rhinovirus 47): 0.003 µg/mL (≈ 0.00905 µM)
- IC50 (Rhinovirus 50): 0.01 µg/mL (≈ 0.0302 µM)
- IC50 (Rhinovirus 55): 0.009 µg/mL (≈ 0.0272 µM)
- IC50 (Rhinovirus 9): 0.003 µg/mL (≈ 0.00905 µM)
- MCC [2]: 40 µg/mL

Compound: CCOc1cc(OC)c(C(=O)CCc2ccc(OC)cc2)c(OC(C)=O)c1 [5-Ethoxy-3-methoxy-2-[3-(4-methoxyphenyl)-propionyl]phenyl-acetat]
- IC50 (Rhinovirus HGP; [3]): 0.001 µg/mL (≈ 0.00269 µM)
- MCC at 48 h [1]: > 8 µg/mL

Compound: CCOC(=O)Oc1cc(OCC)cc(OC)c1C(=O)CCc1ccc(OC)cc1 [5-Ethoxy-3-methoxy-2-[3-(4-methoxyphenyl)propionyl]-phenyl-ethylcarbonat]
- IC50 (Rhinovirus HGP; [3]): 0.002 µg/mL (≈ 0.00497 µM)
- antivirale Aktivität (Rhinovirus HGP): besonders starke antivirale Aktivität
- MCC at 48 h [1]: 8 µg/mL

Compound: CCOc1cc(OC)c(C(=O)CCc2ccc(OC)cc2)c(OC(=O)c2ccccc2)c1 [5-Ethoxy-3-methoxy-2-[3-(4-methoxyphenyl)propionyl]phenyl-benzoat]
- IC50 (Rhinovirus HGP; [3]): 0.01 µg/mL (≈ 0.023 µM)
- MCC at 48 h [1]: > 8 µg/mL

Compound: CCCCCCCCCCCCCCCCCC(=O)Oc1cc(OCC)cc(OC)c1C(=O)CCc1ccc(OC)cc1 [5-Ethoxy-3-methoxy-2-[3-(4-methoxyphenyl)propionyl]phenyl-octadecanoat]
- IC50 (Rhinovirus HGP; [3]): 0.9 µg/mL (≈ 1.51 µM)
- MCC at 48 h [1]: > 8 µg/mL

Compound: CCOc1cc(OC)c(C(=O)CCc2ccc(OC)cc2)c(O[C@@H]2O[C@H](CO)[C@@H](O)[C@H](O)[C@H]2O)c1 [5-Ethoxy-3-methoxy-2-[3-(4-methoxyphenyl)propionyl]phenyl-ß-D-glucopyranosid]
- IC50 (Rhinovirus HGP; [3]): 2.7 µg/mL (≈ 5.48 µM)
- MCC at 48 h [1]: > 10 µg/mL

Compound: CCOc1cc(OC)c(C(=O)CCc2ccc(OC)cc2)c(OP(=O)(O)O)c1 [5-Ethoxy-3-methoxy-2-[3-(4-methoxyphenyl)propionyl]phenyldihydrogenphosphat]
- IC50 (Rhinovirus HGP): 0.3 to 0.8 µg/mL (≈ 0.731 to 1.95 µM)
- MCC at 48 h [1]: > 10 µg/mL

Compound: CCOc1cc(OC)c(C(=O)NCc2ccc(OC)cc2)c(OP(=O)([O-])[O-])c1.[Na+].[Na+] [Dinatrium 2-[(p-Anisylamino)carbonyl]-5-ethoxy-3-methoxyphenyl-phosphat]
- IC50 (Rhinovirus HGP): 0.01 to 0.03 µg/mL
- antivirale Aktivität (Rhinovirus HGP): besonders starke antivirale Aktivität
- Cytotoxizität (HeLa-Zellen): >8 µg/mL

Compound: CCCOc1cc(OC)c(C(=O)NCc2ccc(OC)cc2)c(OP(=O)([O-])[O-])c1.[Na+].[Na+] [Dinatrium 2-[(p-anisylamino)carbonyl]-3-methoxy-5-propoxyphenylphosphat]
- IC50 (Rhinovirus HGP): 0.01 to 0.02 µg/mL
- antivirale Aktivität (Rhinovirus HGP): besonders starke antivirale Aktivität
- MCC at 48 h [1]: > 200 µg/mL

Compound: CCOc1cc(OC)c(C(=O)CCc2ccc(OC)cc2)c(OP(=O)([O-])[O-])c1.[Na+].[Na+] [Dinatrium 5-ethoxy-3-methoxy-2-[3-(4-methoxyphenyl)-propionyl]phenylphosphat]
- IC50 (Rhinovirus HGP): 0.03 to 0.1 µg/mL
- Cytotoxizität (HeLa-Zellen): >10 µg/mL

Compound: CCCCOc1ccc(CNC(=O)c2c(O)cc(OC)cc2OC)cc1 [N-(p-Butoxybenzyl)-2-hydroxy--4,6-dimethoxybenzamid]
- IC50 (Rhinovirus HGP; [3]): 0.3 µg/mL (≈ 0.835 µM)
- MCC at 48 h [1]: 8 µg/mL

Compound: COc1cc(O)c(C(=O)NCc2ccc(Cl)cc2)c(OC)c1 [N-(p-Chlorobenzyl)-2-hydroxy--4,6-dimethoxybenzamid]
- IC50 (Rhinovirus HGP; [3]): 0.01 to 0.03 µg/mL (≈ 0.0311 to 0.0932 µM)
- MCC at 48 h [1]: > 2.4 µg/mL

Compound: COc1cc(O)c(C(=O)NCc2ccccc2)c(OC)c1 [N-Benzyl-2-hydroxy-4,6-dimethoxy-benzamid]
- IC50 (Rhinovirus HGP; [3]): 0.03 to 0.1 µg/mL (≈ 0.104 to 0.348 µM)
- MCC at 48 h [1]: > 8 µg/mL

Compound: COc1cc(O)c(C(=O)NCc2ccco2)c(OC)c1 [N-Furfuryl-2-hydroxy-4,6--dimethoxybenzamid]
- IC50 (Rhinovirus HGP; [3]): 0.03 to 0.1 µg/mL (≈ 0.108 to 0.361 µM)
- MCC at 48 h [1]: > 8 µg/mL

Compound: C=CCOc1ccc(CNC(=O)c2c(O)cc(OC)cc2OC)cc1 [N-[p-(Allyloxy)benzyl]-2-hydroxy-4,6-dimethoxybenzamid]
- IC50 (Rhinovirus HGP; [3]): 0.01 µg/mL (≈ 0.0291 µM)
- MCC at 48 h [1]: 8 µg/mL

Compound: COc1cc(O)c(C(=O)NCc2ccc(OCc3ccccc3)cc2)c(OC)c1 [N-[p-(Benzyloxy)benzyl]-2--hydroxy-4,6-dimethoxybenzamid]
- IC50 (Rhinovirus HGP; [3]): 0.3 to 0.9 µg/mL (≈ 0.763 to 2.29 µM)
- MCC at 48 h [1]: > 8 µg/mL

Compound: COc1cc(O)c(C(=O)NCc2ccc(N(C)C)cc2)c(OC)c1 [N-[p-(Dimethylamino)benzyl]-2--hydroxy-4,6-dimethoxybenzamid]
- IC50 (Rhinovirus HGP; [3]): 0.01 µg/mL (≈ 0.0303 µM)
- MCC at 48 h [1]: > 8 µg/mL
